In brackets after ≈: the same amount, converted by molar mass. Several values for one entry are separate records, joined by “and”; a condition that tells them apart may be missing. Equal values may be shown once. Read-outs that look alike come from different tables or passages of the source.
System: Phytophthora infestans (resistant to metalaxyl)
Type: in vivo
[1] = 16 mg/L active ingredient, 5 days post inoculation, Table 2
[2] = 16 mg/L active ingredient, 6 day post inoculation, Table 6
[3] = 62 mg/L active ingredient, 5 days post inoculation, Table 2
[4] = 62 mg/L active ingredient, 6 day post inoculation, Table 6
[5] = 250 mg/L active ingredient, 5 days post inoculation, Table 2
[6] = 250 mg/L active ingredient, 6 day post inoculation, Table 6
[7] = 1000 mg/L active ingredient, 6 day post inoculation, Table 6
[8] = 16 mg/L active ingredient, 7 days post inoculation, Table 8
[9] = 25 mg/L active ingredient, 5 days post inoculation, Table 12
[10] = 62 mg/L active ingredient, 7 days post inoculation, Table 8
[11] = 125 mg/L active ingredient, 4 day post inoculation, Table 7
[12] = 250 mg/L active ingredient, 4 days post inoculation, Table 11
[13] = 250 mg/L active ingredient, 7 days post inoculation, Table 8
[14] = 250 mg/L active ingredient, Table 27
[15] = 500 mg/L active ingredient, Table 27
[16] = 1000 mg/L active ingredient, Table 27
[17] = Cultivar Cara, 16 mg/L active ingredient, 5 days post inoculation, Table 3
[18] = Cultivar Cara, 62 mg/L active ingredient, 5 days post inoculation, Table 3
[19] = Cultivar Cara, 250 mg/L active ingredient, 5 days post inoculation, Table 3
[20] = Cultivar Cara, 1000 mg/L active ingredient, 5 days post inoculation, Table 3
[21] = Cultivar Draga, 16 mg/L active ingredient, 5 days post inoculation, Table 3
[22] = Cultivar Draga, 62 mg/L active ingredient, 5 days post inoculation, Table 3
[23] = Cultivar Draga, 250 mg/L active ingredient, 5 days post inoculation, Table 3
[24] = Cultivar Draga, 1000 mg/L active ingredient, 5 days post inoculation, Table 3

CCNC(=O)NC(=O)/C(C#N)=N/OC [Cymoxanil]
Percent Disease Control (4 mg/L active ingredient, 5 days post inoculation, Table 2): 36% | Percent Disease Control [1]: 73% | Percent Disease Control [2]: 83% | Percent Disease Control [3]: 64% | Percent Disease Control [4]: 86% | Percent Disease Control [5]: 98% | Percent Disease Control [6]: 91% | Percent Disease Control [7]: 100% | ED90 (in vivo): 128 µg/mL and 183 µg/mL

CCCCCCCCOC(=O)CC(C)NC(=O)c1ccccc1 (racemic) [N-benzoyl octyl ester derivative of BABA]
Percent Disease Control [8]: 3% | Percent Disease Control (16 mg/L active ingredient, 7 days post inoculation, Table 9): 0% | Percent Disease Control (16 mg/L active ingredient, 7 days post inoculation, Table 10): 0% | Percent Disease Control [9]: 15% | Percent Disease Control [10]: 25% | Percent Disease Control (62 mg/L active ingredient, 7 days post inoculation, Table 9): 0% | Percent Disease Control (62 mg/L active ingredient, 7 days post inoculation, Table 10): 0% | Percent Disease Control [11]: 15% | Percent Disease Control (250 mg/L active ingredient, 4 day post inoculation, Table 7): 25% | Percent Disease Control [12]: 63% | Percent Disease Control [13]: 25% | Percent Disease Control (250 mg/L active ingredient, 7 days post inoculation, Table 9): 0% | Percent Disease Control (250 mg/L active ingredient, 7 days post inoculation, Table 10): 0% | Percent Disease Control (500 mg/L active ingredient, 4 days post inoculation, Table 11): 69% | Percent Disease Control (500 mg/L active ingredient, 5 days post inoculation, Table 12): 25% | Percent Disease Control (1000 mg/L active ingredient, 4 day post inoculation, Table 7): 50% | Percent Disease Control (1000 mg/L active ingredient, 4 days post inoculation, Table 11): 85% | Percent Disease Control (1000 mg/L active ingredient, 5 days post inoculation, Table 12): 50% | Percent Disease Control (1000 mg/L active ingredient, 7 days post inoculation, Table 8): 75% | Percent Disease Control (1000 mg/L active ingredient, 7 days post inoculation, Table 9): 25% | Percent Disease Control (1000 mg/L active ingredient, 7 days post inoculation, Table 10): 25% | Percent Disease Control (2000 mg/L active ingredient, 4 day post inoculation, Table 7): 53% | Percent Disease Control (2000 mg/L active ingredient, 4 days post inoculation, Table 11): 89% | Percent Disease Control (2000 mg/L active ingredient, 5 days post inoculation, Table 12): 53%

CSC(=O)c1cccc2nnsc12 [BION, Acibenzolar-s-methyl]
Percent Disease Control [14]: 13% | Percent Disease Control [15]: 25% | Percent Disease Control [16]: 78% | ED90 (Table 27): 1173 µg/mL (≈ 5580 µM)

O=C1c2ccccc2C(=O)N1SC(Cl)(Cl)Cl [FOLPET, Folpet]
Percent Disease Control (4 mg/L active ingredient, 4 days post inoculation, Table 11): 70% | Percent Disease Control (16 mg/L active ingredient, 4 days post inoculation, Table 11): 75% | Percent Disease Control [2]: 81% | Percent Disease Control (62 mg/L active ingredient, 4 days post inoculation, Table 11): 90% | Percent Disease Control [4]: 95% | Percent Disease Control [12]: 95% | Percent Disease Control [6]: 98% | Percent Disease Control [7]: 100% | ED90 (4 days post inoculation, Table 11): 141 µg/mL (≈ 475 µM) | ED90 (6 day post inoculation, Table 6): 84 µg/mL (≈ 283 µM)

CC(N)CC(=O)O (stereo not drawn) [BABA, DLβ-amino-butanoic acid]
Percent Disease Control (16 mg/L active ingredient, 5 day post inoculation, Table 4): 3% | Percent Disease Control [1]: 3% | Percent Disease Control [2]: 22% | Percent Disease Control (16 mg/L active ingredient, 7 days, Table 5): 14% | Percent Disease Control (32 mg/L active ingredient, 5 days post inoculation, Table 1): 0% | Percent Disease Control (62 mg/L active ingredient, 5 day post inoculation, Table 4): 24% | Percent Disease Control [3]: 24% | Percent Disease Control [4]: 22% | Percent Disease Control (62 mg/L active ingredient, 7 days, Table 5): 14% | Percent Disease Control (125 mg/L active ingredient, 5 days post inoculation, Table 1): 0% | Percent Disease Control (250 mg/L active ingredient, 5 day post inoculation, Table 4): 18% | Percent Disease Control (250 mg/L active ingredient, 5 days post inoculation, Table 1): 0% | Percent Disease Control [5]: 18% | Percent Disease Control [6]: 22% | Percent Disease Control (250 mg/L active ingredient, 7 days, Table 5): 14% | Percent Disease Control [14]: 38% | Percent Disease Control [15]: 75% | Percent Disease Control (1000 mg/L active ingredient, 5 day post inoculation, Table 4): 64% | Percent Disease Control (1000 mg/L active ingredient, 5 days post inoculation, Table 1): 13% | Percent Disease Control (1000 mg/L active ingredient, 5 days post inoculation, Table 2): 64% | Percent Disease Control [7]: 69% | Percent Disease Control (1000 mg/L active ingredient, 7 days, Table 5): 36% | Percent Disease Control [16]: 93% | ED90 (7 days): 2617 µg/mL (≈ 25400 µM) | Percent Disease Control [17]: 9% | Percent Disease Control [18]: 9% | Percent Disease Control [19]: 9% | Percent Disease Control [20]: 24% | Percent Disease Control [21]: 0% | Percent Disease Control [22]: 0% | Percent Disease Control [23]: 0% | Percent Disease Control [24]: 53%

Cc1ccc(C(C)NC(=O)[C@@H](NC(=O)OC(C)C)C(C)C)cc1 (some centres unmarked) [Fencaramid]
Percent Disease Control (2 mg/L active ingredient, 4 day post inoculation, Table 7): 0% | Percent Disease Control (2 mg/L active ingredient, 5 days post inoculation, Table 12): 0% | Percent Disease Control (8 mg/L active ingredient, 4 day post inoculation, Table 7): 50% | Percent Disease Control (8 mg/L active ingredient, 5 days post inoculation, Table 12): 50% | Percent Disease Control [9]: 100% | Percent Disease Control (31 mg/L active ingredient, 5 days post inoculation, Table 12): 98% | Percent Disease Control (32 mg/L active ingredient, 4 day post inoculation, Table 7): 98% | Percent Disease Control [11]: 100% | ED90 (4 day post inoculation, Table 7): 19 µg/mL (≈ 59.3 µM) | ED90 (5 days post inoculation, Table 12): 19 µg/mL (≈ 59.3 µM)

CCO[PH](=O)O [Fosetyl − Al, phosetyl-aluminium]
Percent Disease Control [17]: 9% | Percent Disease Control [18]: 24% | Percent Disease Control [19]: 24% | Percent Disease Control [20]: 70% | ED90 (Cultivar Cara, 5 days post inoculation, Table 3): 1390 µg/mL (≈ 12600 µM) | Percent Disease Control [21]: 33% | Percent Disease Control [22]: 33% | Percent Disease Control [23]: 50% | Percent Disease Control [24]: 93% | ED90 (Cultivar Draga, 5 days post inoculation, Table 3): 856 µg/mL (≈ 7780 µM)

[Cu+2].[OH-].[OH-] [Cu(OH)2, copper hydroxide]
Percent Disease Control (4 mg/L active ingredient, 7 days post inoculation, Table 8): 0% | Percent Disease Control [8]: 0% | Percent Disease Control [10]: 13% | Percent Disease Control [13]: 75% | ED90 (7 days post inoculation, Table 8): 298 µg/mL
